pIC50: −log10 of the molar value.
biological target: CNDP2 (Homo sapiens (Human), UniProt Q96KP4); assay: CNDP2 enzyme inhibition assay (Met-His hydrolysis, free histidine by o-phthaldialdehyde fluorescence), dose-response; type: biochemical; details: 50 nM purified CNDP2 (Sino Biological), 1 mM Met-His substrate, 30 minutes at 37° C.; TABLE 2
Method: To identify optimal conditions for identifying novel inhibitors of CNDP2, enzyme assays were performed with varied sources of purified enzyme, concentrations of enzyme, peptide substrates, concentrations of peptide substrates and metal cofactors. […] The reaction mixture was incubated for 30 minutes at 37° C. before it was quenched with an equal volume of 1% TCA. Free histidine was quantified after derivatization with a fluorophore (o-phthaldialdehyde from Sigma-Aldrich, excitation 340 nm, emission 460 nm). The reaction was conducted in an automation-friendly format to meet future screening throughput demands. A histidine titration standard curve was also included to enable conversion of fluorescence signal to molar concentration of histidine released by the hydrolysis reaction and to ensure the linearity of the fluorescence signal vs. free histidine.
Compounds of Formula (I) disclosed herein were screened for potency in inhibiting CNDP2 enzyme activity in a dose-response experiment. Bestatin was included with each batch of test molecules as a benchmark for assay quality control.

CNDP2, sequence (Q96KP4 whole entry): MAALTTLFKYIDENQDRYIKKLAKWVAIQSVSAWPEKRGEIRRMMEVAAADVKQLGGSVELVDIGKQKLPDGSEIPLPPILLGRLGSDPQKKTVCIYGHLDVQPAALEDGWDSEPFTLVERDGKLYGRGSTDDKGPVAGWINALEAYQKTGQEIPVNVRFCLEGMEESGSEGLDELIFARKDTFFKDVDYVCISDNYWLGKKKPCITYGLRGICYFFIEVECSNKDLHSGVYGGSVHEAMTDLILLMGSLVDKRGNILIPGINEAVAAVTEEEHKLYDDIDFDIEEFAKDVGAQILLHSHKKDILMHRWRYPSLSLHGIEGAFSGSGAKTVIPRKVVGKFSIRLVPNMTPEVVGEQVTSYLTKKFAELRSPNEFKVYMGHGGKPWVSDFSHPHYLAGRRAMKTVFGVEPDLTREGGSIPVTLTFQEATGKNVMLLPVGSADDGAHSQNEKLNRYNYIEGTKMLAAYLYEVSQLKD

SMILES | pIC50
N[C@H](Cc1ccccc1)[C@H](O)C(=O)NC(C(=O)O)c1cc(F)cc(C(F)(F)F)c1 (some centres unmarked) [Compound 68] | > 7.00
N[C@H](Cc1ccccc1)[C@H](O)C(=O)NC(C(=O)O)c1ccc(F)c(C(F)(F)F)c1 (some centres unmarked) [Compound 69] | > 7.00
N[C@H](Cc1ccccc1)[C@H](O)C(=O)NC(c1cccc(C(F)(F)F)c1)c1noc(=O)[nH]1 (some centres unmarked) [Compound 71] | 6.00 to 7.00
N[C@H](Cc1ccccc1)[C@H](O)C(=O)NC(CN1CCC(F)(F)CC1)C(=O)O (some centres unmarked) [Compound 72] | ≤ 6.00
N[C@H](Cc1ccccc1)[C@H](O)C(=O)N[C@@H](CN1CCC(C(F)(F)F)CC1)C(=O)O [Compound 73] | ≤ 6.00
N[C@H](Cc1ccccc1)[C@H](O)C(=O)N[C@H](c1cccc(OC(F)(F)F)c1)c1n[nH]c(=O)o1 [Compound 74] | ≤ 6.00
N[C@H](Cc1ccccc1)[C@H](O)C(=O)N[C@@H](c1cccc(OC(F)(F)F)c1)c1n[nH]c(=O)o1 [Compound 75] | ≤ 6.00
N[C@H](Cc1ccccc1)[C@H](O)C(=O)N[C@@H](C(=O)O)c1cc(C(F)(F)F)ccc1C(F)(F)F [Compound 80] | ≤ 6.00
N[C@H](Cc1ccccc1)[C@H](O)C(=O)N[C@H](C(=O)O)c1cc(C(F)(F)F)ccc1C(F)(F)F [Compound 81] | ≤ 6.00
N[C@H](Cc1ccccc1)[C@H](O)C(=O)N[C@@H](CN1CCCC(F)(F)C1)C(=O)O [Compound 82] | ≤ 6.00
N[C@H](Cc1ccccc1)[C@H](O)C(=O)N[C@@H](CN1CCC(F)(F)C1)C(=O)O [Compound 83] | ≤ 6.00
C[C@](NC(=O)[C@@H](O)[C@H](N)Cc1ccccc1)(C(=O)O)c1cccc(C(F)(F)F)c1 [Compound 84, (R)-2-((2S,3R)-3-amino-2-hydroxy-4-phenylbutanamido)-2-(3-(trifluoromethyl)phenyl)propanoic acid] | ≤ 6.00
C[C@@](NC(=O)[C@@H](O)[C@H](N)Cc1ccccc1)(C(=O)O)c1cccc(C(F)(F)F)c1 [Compound 85, (S)-2-((2S,3R)-3-amino-2-hydroxy-4-phenylbutanamido)-2-(3-(trifluoromethyl)phenyl)propanoic acid] | ≤ 6.00
N[C@H](Cc1ccccc1)[C@H](O)C(=O)N[C@@H](C(=O)O)c1cccc(C(F)(F)F)c1Cl [Compound 86, (R)-2-((2S,3R)-3-amino-2-hydroxy-4-phenylbutanamido)-2-(2-chloro-3-(trifluoromethyl)phenyl)acetic acid] | ≤ 6.00
N[C@H](Cc1ccccc1)[C@H](O)C(=O)N[C@H](C(=O)O)c1cccc(C(F)(F)F)c1Cl [Compound 87, (S)-2-((2S,3R)-3-amino-2-hydroxy-4-phenylbutanamido)-2-(2-chloro-3-(trifluoromethyl)phenyl)acetic acid] | 6.00 to 7.00
C[C@@](NC(=O)[C@@H](O)[C@H](N)Cc1ccccc1)(C(=O)O)c1cccc(OC(F)(F)F)c1 [Compound 88, (S)-2-((2S,3R)-3-amino-2-hydroxy-4-phenylbutanamido)-2-(3-(trifluoromethoxy)phenyl)propanoic acid] | ≤ 6.00

SMILES | pIC50
C[C@](NC(=O)[C@@H](O)[C@H](N)Cc1ccccc1)(C(=O)O)c1cccc(OC(F)(F)F)c1 [Compound 89, (R)-2-((2S,3R)-3-amino-2-hydroxy-4-phenylbutanamido)-2-(3-(trifluoromethoxy)phenyl)propanoic acid] | ≤ 6.00
N[C@H](Cc1ccccc1)[C@H](O)C(=O)N[C@@H](C(=O)O)c1cccc(C(F)(F)F)c1F [Compound 90, (R)-2-((2S,3R)-3-amino-2-hydroxy-4-phenylbutanamido)-2-(2-fluoro-3-(trifluoromethyl)phenyl)acetic acid] | > 7.00
N[C@H](Cc1ccccc1)[C@H](O)C(=O)N[C@H](C(=O)O)c1cccc(C(F)(F)F)c1F [Compound 91, (S)-2-((2S,3R)-3-amino-2-hydroxy-4-phenylbutanamido)-2-(2-fluoro-3-(trifluoromethyl)phenyl)acetic acid] | 6.00 to 7.00
N[C@H](Cc1ccccc1)[C@H](O)C(=O)N[C@@H](C(=O)O)c1cc(F)cc(C(F)(F)F)c1 [Compound 92, (R)-2-((2S,3R)-3-amino-2-hydroxy-4-phenylbutanamido)-2-(5-fluoro-3-(trifluoromethyl)phenyl)acetic acid] | > 7.00
N[C@H](Cc1ccccc1)[C@H](O)C(=O)N[C@H](C(=O)O)c1cc(F)cc(C(F)(F)F)c1 [Compound 93, (S)-2-((2S,3R)-3-amino-2-hydroxy-4-phenylbutanamido)-2-(5-fluoro-3-(trifluoromethyl)phenyl)acetic acid] | ≤ 6.00
N[C@H](Cc1ccccc1)[C@H](O)C(=O)N[C@@H](C(=O)O)c1ccc(F)c(C(F)(F)F)c1 [Compound 94, (R)-2-((2S,3R)-3-amino-2-hydroxy-4-phenylbutanamido)-2-(4-fluoro-3-(trifluoromethyl)phenyl)acetic acid] | > 7.00
N[C@H](Cc1ccccc1)[C@H](O)C(=O)N[C@H](C(=O)O)c1ccc(F)c(C(F)(F)F)c1 [Compound 95, (S)-2-((2S,3R)-3-amino-2-hydroxy-4-phenylbutanamido)-2-(4-fluoro-3-(trifluoromethyl)phenyl)acetic acid] | ≤ 6.00
N[C@H](Cc1ccccc1)[C@H](O)C(=O)N[C@@H](C(=O)O)c1ccc(F)c(C(F)(F)F)c1F [Compound 96, (R)-2-((2S,3R)-3-amino-2-hydroxy-4-phenylbutanamido)-2-(2,4-difluoro-3-(trifluoromethyl)phenyl)acetic acid] | > 7.00
N[C@H](Cc1ccccc1)[C@H](O)C(=O)N[C@H](C(=O)O)c1ccc(F)c(C(F)(F)F)c1F [Compound 97, (S)-2-((2S,3R)-3-amino-2-hydroxy-4-phenylbutanamido)-2-(2,4-difluoro-3-(trifluoromethyl)phenyl)acetic acid] | 6.00 to 7.00
N[C@H](Cc1ccccc1)[C@H](O)C(=O)N[C@@H](Cc1cc(F)c(OC(F)(F)F)c(F)c1)C(=O)O [Compound 98] | 6.00 to 7.00
N[C@H](Cc1ccccc1)[C@H](O)C(=O)N[C@@H](Cc1ccc(F)c(OC(F)(F)F)c1)C(=O)O [Compound 99] | ≤ 6.00
N[C@H](Cc1ccccc1)[C@H](O)C(=O)N[C@@H](Cc1ccc(C(F)(F)F)c(Cl)c1)C(=O)O [Compound 100] | 6.00 to 7.00
N[C@H](Cc1ccccc1)[C@H](O)C(=O)N[C@@H](CC1CCC(F)(F)CC1)c1n[nH]c(=O)o1 [Compound 101] | ≤ 6.00
N[C@H](Cc1ccccc1)[C@H](O)C(=O)N[C@@H](C(=O)O)c1cc(F)cc(OC(F)(F)F)c1 [Compound 102, (R)-2-((2S,3R)-3-amino-2-hydroxy-4-phenylbutanamido)-2-(3-fluoro-5-(trifluoromethoxy)phenyl)acetic acid] | ≤ 6.00
N[C@H](Cc1ccccc1)[C@H](O)C(=O)N[C@H](C(=O)O)c1cc(F)cc(OC(F)(F)F)c1 [Compound 103, (S)-2-((2S,3R)-3-amino-2-hydroxy-4-phenylbutanamido)-2-(3-fluoro-5-(trifluoromethoxy)phenyl)acetic acid] | > 7.00
N[C@H](Cc1ccccc1)[C@H](O)C(=O)N[C@@H](C(=O)O)c1ccc(F)c(OC(F)(F)F)c1 [Compound 104, (R)-2-((2S,3R)-3-amino-2-hydroxy-4-phenylbutanamido)-2-(4-fluoro-3-(trifluoromethoxy)phenyl)acetic acid] | ≤ 6.00
